Data published in patent US5560923A (Georgetown University, priority 1994, dated 1996).

Tests used:
[1] = test system: LZ cells; test: Clonogenic assay, cytotoxicity / multidrug resistance reversal in LZ cells; conditions: mixed with cardiolipin-containing liposomes
Protocol: Percent survival of treated cells was determined relative to untreated control.

[2] = Complex formation of drug with cardiolipin-containing liposomes (centrifugation, spectrophotometry of supernatant); assay type: physicochemical; conditions: same conditions as doxorubicin, mixed with cardiolipin-containing liposomes
Protocol: Formation of the complex liposome-doxorubicin was evaluated relative to the time of the incubation at 25° C. following the mixing of both components (FIG. 1).
Association capacity of doxorubicin to cardiolipin-liposomes was evaluated for different concentrations of mixture of both components mixed in the same volume (5 ml) after an incubation of 15 min. at 37° C. at a fixed liposome/doxorubicin weight ratio of 11 (Table 1).

CC[C@]1(O)C[C@H]2CN(CCc3c([nH]c4ccccc34)[C@@](C(=O)OC)(c3cc4c(cc3OC)N(C=O)[C@H]3[C@@](O)(C(=O)OC)[C@H](OC(C)=O)[C@]5(CC)C=CCN6CC[C@]43[C@@H]65)C2)C1 [vincristine]
increase in drug cytotoxicity (in words) [1]: no increase in drug cytotoxicity was observed | association between drug and liposome (in words) [2]: no association between drug and liposome was formed
